In ChEMBL document CHEMBL4418265, “Piperidinylpyrazolopyridine derivatives” (2016) one finds Activity data, which are given here for one compound.

The assay relates to Cynomolgus monkey. The assay can be described thus: Increase in HDL-C level in cynomolgus monkey plasma at 10 mg/kg, po administered as single dose measured after 1 or 7 days by HPLC method. In kind it is functional, Macaca fascicularis.

Turning to `O=C1CC(O)(C(F)(F)F)c2c(C3CCN(c4ccc(OC(F)F)cc4)CC3)n[nH]c2N1` (single isomer, unassigned), the Activity stood at 644%.
